Patent US20100087481A1, “ORAL PHARMACEUTICAL FORMULATIONS FOR ANTIDIABETIC COMPOUNDS” (priority 2008, published 2010)
Where two headings read alike, the source gives them in different places.

Columns and labels:
[1] = Solubility in selected oil-based media; type: physicochemical; details: oil or lipid, read-out: Solubility, Concentration
[2] = Physical stability in selected oil-based media (visual); type: physicochemical
From the text: Physical stability of the drug was monitored visually.

[3] = in aqueous solvents and in most organic solvents; cited from earlier work
[4] = Chemical stability in selected oil-based media; type: physicochemical
Protocol: Studies were performed over a 2 week period at −20° C., 2-8° C., 40° C./75% RH and 60° C. At the elevated temperatures, chemical stability was monitored in the presence and absence of argon. Additionally, the pH stability of the drug was assessed over a seven week period at 40° C./75% RH, pH 2, 3, 5, 7, 9, and 10. […] In oil-based media containing neat Capmul® MCM or phosphatidylcholine (Phospholipon® 90G, Phosal® 53 MCT), drug recovery was >99%. […] The degradation observed in Capmul® MCM was inhibited by the addition of argon.

O=S(=O)(Nc1cc(Cl)c(Oc2cnc3ccccc3c2)c(Cl)c1)c1ccc(Cl)cc1Cl.O=S(=O)(O)c1ccccc1 [besylate salt of compound 101, 2,4-Dichloro-N-[3,5-dichloro-4-(quinolin-3-yloxy)-phenyl]-benzenesulfonamide benzenesulfonate salt]
solubility ([1]; Capmul® MCM (oil-based medium), in Capmul ® MCM): 16600 µg/mL
solubility ([1]; Capmul® PG8 (oil-based medium), in Capmul ® PG8): 2010 µg/mL
solubility ([1]; Captex® 200 (oil-based medium), in Captex ® 200): 450 µg/mL
solubility ([1]; Captex® 300EP (oil-based medium), in Captex ® 300EP): 280 µg/mL
solubility ([1]; Captex® 355 (oil-based medium), in Captex ® 355): 520 µg/mL
solubility ([1]; Crodamol® (oil-based medium), in Crodamol ®): 450 µg/mL
solubility ([1]; Inwitor 742 (oil-based medium), in Inwitor 742): 7930 µg/mL
solubility ([1]; Labrafac® CC (oil-based medium), in Labrafac ® CC): 290 µg/mL
solubility ([1]; Labrafil® M 1944 CS (oil-based medium), in Labrafil ® M 1944 CS): 2340 µg/mL
solubility ([1]; Labrasol® (oil-based medium), in Labrasol ®): 29200 µg/mL
solubility ([1]; Maisine 35-I (oil-based medium), in Maisine 35-I): 1160 µg/mL
solubility ([1]; Miglyol® 132 (oil-based medium), in Miglyol ® 132): 800 µg/mL
solubility ([1]; Miglyol® 810N (oil-based medium), in Miglyol ® 810N): 380 µg/mL
solubility ([1]; Miglyol® 812N (oil-based medium), in Miglyol ® 812N): 7930 µg/mL
solubility ([1]; Peceol (oil-based medium), in Peceol): 3940 µg/mL
solubility ([1]; Phosal® 53 MCT (oil-based medium), in Phosal ® 53 MCT): 43400 µg/mL
solubility ([1]; in Corn Oil): 160 µg/mL
solubility ([1]; in Super-refined soybean oil): 40 µg/mL
Physical stability (visual) ([2]; addition of 47% Capmul® MCM to oil-based media containing Phospholipon® 90G): inhibited solid formation
Physical stability (visual) ([2]; high concentrations of Capmul® (>80%)): solidification and cloudiness
Physical stability (visual) ([2]; warming then cooling compositions with more than 50% Phospholipon® 90G): formation of a fine suspension
Solubility in words [3]: sparingly soluble
Drug degradation ([4]; in Capmul® MCM at 60° C.): 7%
Effect of argon on degradation ([4]; in Capmul® MCM, addition of argon): inhibited
Drug degradation ([4]; in Phosal® 53 MCT at 60° C.): no drug degradation
Degradation of the drug ([4]; in the presence of Labrasol®, Capmul® MCM and Phospholipon® 90G, 40° C., 2-week period): little or no degradation
